In ChEMBL document CHEMBL1201862, “PubChem BioAssay data set” (2004):
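Exposure lasted 48 hours, with cells grown in 96-well plates and compounds tested at five concentrations. GI50: concentration for 50% inhibition of growth.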 Active and inactive are the calls of the source. Cut-off read from the data, not from the text of the source: active = GI50 up to about 1.1 µM and inactive = higher.

Tests used:
Assay in all cases: growth of human tumour cells (NCI), 48 h
MDA-N = tested on: MDA-N
SW-620 = tested on: SW-620
CCRF-CEM = tested on: CCRF-CEM
SNB-19 = tested on: SNB-19
SF-539 = tested on: SF-539
SK-MEL-28 = tested on: SK-MEL-28
T47D = tested on: T47D
SR = tested on: SR
A549 = tested on: A549
Malme-3M = tested on: Malme-3M
DU-145 = tested on: DU-145
PC-3 = tested on: PC-3
KM12 = tested on: KM12
OVCAR-4 = tested on: OVCAR-4
COLO 205 = tested on: COLO 205
EKVX = tested on: EKVX
IGROV-1 = tested on: IGROV-1
SN12C = tested on: SN12C
SK-MEL-2 = tested on: SK-MEL-2
HL-60 = tested on: HL-60
NCI/ADR-RES = tested on: NCI/ADR-RES
UO-31 = tested on: UO-31
NCI-H460 = tested on: NCI-H460
SK-MEL-5 = tested on: SK-MEL-5
ACHN = tested on: ACHN
TK-10 = tested on: TK-10
HT-29 = tested on: HT-29
HOP-62 = tested on: HOP-62
OVCAR-5 = tested on: OVCAR-5
HCT-116 = tested on: HCT-116
OVCAR-8 = tested on: OVCAR-8
MCF7 = tested on: MCF7
SNB-75 = tested on: SNB-75
UACC-257 = tested on: UACC-257
U-251 = tested on: U-251
HCC 2998 = tested on: HCC 2998
SF-295 = tested on: SF-295
786-0 = tested on: 786-0
NCI-H23 = tested on: NCI-H23
OVCAR-3 = tested on: OVCAR-3
Hs-578T = tested on: Hs-578T
CAKI-1 = tested on: CAKI-1
SF-268 = tested on: SF-268
K562 = tested on: K562
MOLT-4 = tested on: MOLT-4
LOX IMVI = tested on: LOX IMVI
A498 = tested on: A498
SK-OV-3 = tested on: SK-OV-3
MDA-MB-231 = tested on: MDA-MB-231
HCT-15 = tested on: HCT-15
RPMI-8226 = tested on: RPMI-8226
UACC-62 = tested on: UACC-62
M14 = tested on: M14
RXF 393 = tested on: RXF 393
HOP-92 = tested on: HOP-92
NCI-H522 = tested on: NCI-H522

Measured: GI50

CCOC(=O)c1ccc(NC(=O)O/N=C(/Cl)CCl)cc1
inactive: MDA-N 37.8 µM | SW-620 50.2 µM | CCRF-CEM 21.5 µM | SNB-19 86.1 µM | SF-539 69 µM | SK-MEL-28 17.6 µM | T47D 34.1 µM | SR 27.2 µM | A549 37.1 µM | Malme-3M 81.1 µM | DU-145 65.3 µM | PC-3 33.6 µM | KM12 15.4 µM | OVCAR-4 71.1 µM | COLO 205 39.6 µM | EKVX 23.5 µM | IGROV-1 > 100 µM | SN12C 84.9 µM | SK-MEL-2 60.5 µM | HL-60 24.2 µM | NCI/ADR-RES 24.5 µM | UO-31 45 µM | NCI-H460 47.9 µM | SK-MEL-5 31.6 µM | ACHN 12.6 µM | TK-10 28.4 µM | HT-29 54.6 µM | HOP-62 > 100 µM | OVCAR-5 86.7 µM | HCT-116 50.1 µM | OVCAR-8 41 µM | MCF7 34.8 µM | SNB-75 4.01 µM | UACC-257 44.6 µM | U-251 39.4 µM | HCC 2998 > 10 µM | SF-295 30.8 µM | 786-0 > 100 µM | NCI-H23 78.5 µM | OVCAR-3 37.6 µM | Hs-578T > 100 µM | CAKI-1 > 100 µM | SF-268 47.1 µM | K562 25.2 µM | MOLT-4 33.6 µM | LOX IMVI 50.1 µM | A498 15.2 µM | SK-OV-3 75.3 µM | MDA-MB-231 > 100 µM | RPMI-8226 47.2 µM
5.57 µM: HCT-15

COc1ccc(C(=O)/C=C/c2ccc(OCC(=O)N3CCN(c4ccccc4)CC3)cc2)cc1OC
inactive: MDA-N 3.21 µM | SW-620 5.73 µM | CCRF-CEM 2.52 µM | SK-MEL-28 6.68 µM | T47D 5.89 µM | UACC-62 5.58 µM | SR 2.18 µM | A549 5.36 µM | Malme-3M 5.96 µM | DU-145 1.42 µM | PC-3 3.56 µM | KM12 4.15 µM | COLO 205 > 10 µM | EKVX 7.01 µM | IGROV-1 9.38 µM | SN12C 4.82 µM | HL-60 2.88 µM | M14 6.28 µM | SK-MEL-5 4.52 µM | TK-10 > 10 µM | HT-29 4.07 µM | HOP-62 4.46 µM | OVCAR-8 4.29 µM | MCF7 2.9 µM | SNB-75 3.72 µM | UACC-257 3.37 µM | HCC 2998 5.3 µM | SF-295 6.3 µM | 786-0 5.31 µM | NCI-H23 2.05 µM | CAKI-1 5.28 µM | SF-268 3.39 µM | K562 3.14 µM | MOLT-4 2.34 µM | RXF 393 1.83 µM | SK-OV-3 6.07 µM | MDA-MB-231 4.69 µM | RPMI-8226 3.33 µM
4.84 µM: HCT-15

COc1cc([C@@H]2c3cc4c(cc3[C@@H](Nc3ccc(NC(=O)c5cc([N+](=O)[O-])cn5C)cc3)[C@H]3COC(=O)[C@H]23)OCO4)cc(OC)c1O
active: SW-620 0.135 µM | CCRF-CEM < 0.01 µM | SNB-19 0.0538 µM | SF-539 0.0577 µM | T47D 0.0266 µM | UACC-62 0.0828 µM | A549 < 0.0124 µM | DU-145 0.0143 µM | PC-3 0.188 µM | KM12 0.22 µM | COLO 205 0.254 µM | EKVX 0.333 µM | IGROV-1 0.173 µM | HL-60 0.0176 µM | UO-31 0.244 µM | NCI-H460 < 0.01 µM | M14 0.0731 µM | ACHN 0.0213 µM | TK-10 0.348 µM | HT-29 0.171 µM | HOP-62 0.0179 µM | OVCAR-5 0.419 µM | HCT-116 0.114 µM | OVCAR-8 0.141 µM | MCF7 < 0.01 µM | SNB-75 0.0498 µM | UACC-257 0.581 µM | HCC 2998 0.243 µM | 786-0 0.0491 µM | NCI-H23 0.0385 µM | HOP-92 0.132 µM | OVCAR-3 0.427 µM | SF-268 0.191 µM | K562 0.108 µM | MOLT-4 < 0.01 µM | RXF 393 0.243 µM | NCI-H522 0.272 µM
0.365 µM: HCT-15
inactive: SK-MEL-28 1.22 µM | SK-MEL-2 1.21 µM
